Laboratory results taken from ChEMBL document CHEMBL4177733, “(-)-9'-O-(α-l-Rhamnopyranosyl)lyoniresinol from Lespedeza cuneata suppresses ovarian cancer cell proliferation through induction of apoptosis” (Bioorg Med Chem Lett, 2018).
Calls of active or inactive are those of the source. No cut-off for these calls is given here.

Columns and labels:
[1] = test system: A2780; assay: Cytotoxicity against human A2780 cells assessed as reduction in cell viability at 5 to 100 uM incubated for 24 hrs by MTT assay; format: functional, cell-based
[2] = test system: A2780; assay: Induction of apoptosis in human A2780 cells assessed as caspase-9 activation at 50 to 100 uM incubated for 24 hrs by Western blot; format: functional, cell-based
[3] = test system: LLC-PK1; assay: Cytotoxicity against LLC-PK1 cells assessed as reduction in cell viability at 5 to 100 uM incubated for 24 hrs by MTT assay; format: cell-based; settings: Sus scrofa, LLC-PK1, 24 h
[4] = test system: HeLa; assay: Cytotoxicity against human HeLa cells assessed as reduction in cell viability at 5 to 100 uM incubated for 24 hrs by MTT assay; format: functional, cell-based
[5] = test system: MCF7; assay: Cytotoxicity against human MCF7 cells assessed as reduction in cell viability at 5 to 100 uM incubated for 24 hrs by MTT assay; format: functional, cell-based
[6] = test system: A2780; assay: Induction of apoptosis in human A2780 cells assessed as induction of cell blebbing at 50 to 100 uM incubated for 24 hrs by Hoechst 33342 staining based fluorescence microscopy; format: functional
[7] = test system: A2780; assay: Induction of apoptosis in human A2780 cells assessed as induction of cell shrinkage at 50 to 100 uM incubated for 24 hrs by Hoechst 33342 staining based fluorescence microscopy; format: functional
[8] = test system: A2780; assay: Induction of apoptosis in human A2780 cells assessed as induction of cell condensation at 50 to 100 uM incubated for 24 hrs by Hoechst 33342 staining based fluorescence microscopy; format: functional
[9] = test system: A2780; assay: Induction of apoptosis in human A2780 cells assessed as caspase-8 activation at 50 to 100 uM incubated for 24 hrs by Western blot; format: functional, cell-based
[10] = test system: A2780; assay: Induction of apoptosis in human A2780 cells assessed as caspase-3 activation at 50 to 100 uM incubated for 24 hrs by Western blot; format: functional, cell-based
[11] = test system: A2780; assay: Induction of apoptosis in human A2780 cells assessed as PARP cleavage at 50 to 100 uM incubated for 24 hrs by Western blot; format: functional, cell-based
[12] = test system: A2780; assay: Induction of apoptosis in human A2780 cells assessed as BID cleavage at 50 to 100 uM incubated for 24 hrs by Western blot; format: functional, cell-based
[13] = test system: A2780; assay: Induction of apoptosis in human A2780 cells assessed as increase in BAX protein level at 50 to 100 uM incubated for 24 hrs by Western blot; format: functional, cell-based
[14] = test system: A2780; assay: Induction of apoptosis in human A2780 cells assessed as reduction in Bcl-2 protein level at 50 to 100 uM incubated for 24 hrs by Western blot; format: functional, cell-based

For `COc1cc([C@H]2c3cc(O)c(OC)cc3C[C@@H](CO)[C@@H]2CO[C@@H]2O[C@@H](C)[C@H](O)[C@@H](O)[C@H]2O)ccc1O`, the Activity [1] was “inactive”.
With `COc1cc([C@@H]2c3cc(O)c(OC)cc3C[C@H](CO)[C@H]2CO[C@@H]2O[C@@H](C)[C@H](O)[C@@H](O)[C@H]2O)ccc1O` the Activity [1] was “inactive”.
`O=c1c(O[C@@H]2O[C@H](CO)[C@@H](O)[C@H](O)[C@H]2O)c(-c2ccc(O)cc2)oc2cc(O)cc(O)c12` was tested, and the Activity [1] was “inactive”.
In the case of `COc1cc2c(cc1O)[C@H](c1cc(OC)c(O)c(OC)c1)[C@@H](CO[C@@H]1O[C@@H](C)[C@H](O)[C@@H](O)[C@H]1O)[C@H](CO)C2`, the Activity [1] is reported as “inactive”.
For `O=c1c(O)c(-c2ccc(O)cc2)oc2cc(O[C@@H]3O[C@H](CO)[C@@H](O)[C@H](O)[C@H]3O)cc(O)c12`, the Activity [1] was “inactive”.
For `COc1cc([C@@H]2c3c(cc(OC)c(O)c3OC)C[C@H](CO)[C@H]2CO[C@@H]2O[C@@H](C)[C@H](O)[C@@H](O)[C@H]2O)cc(OC)c1O`, the Activity [2] was “inactive”, the Activity [1] was “Dose-dependent effect” and the IC50 ([1]; A2780, 24 h) was 35.4 µM. The IC50 [3] was greater than 100 µM, the Activity [4] was “inactive” and the Activity [5] was “inactive”. The Activity [6] was “Active”, the Activity [7] was “Active” and the Activity [8] was “Active”. For the same compound, the Activity [9] was “Active”, the Activity [10] was “Active” and the Activity [11] was “Active”. The Activity [12] was “Active”, the Activity [13] was “Active” and the Activity [14] was “Active”.
`O=c1cc(-c2ccc(O)c(O)c2)oc2c([C@@H]3O[C@H](CO)[C@@H](O)[C@H](O)[C@H]3O)c(O)cc(O)c12` was tested, and the Activity [1] was “inactive”.
For `COc1cc(C(=O)O)ccc1O`, the Activity [1] was “inactive”.
With `COc1cc(C(=O)O)cc(OC)c1O` the Activity [1] was “Active”.
